Test results from PubChem BioAssay (NCI).
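In this assay, cells in 96-well plates receive the compound at five concentrations for 48 hours. Endpoints are linearly interpolated between the surrounding concentrations. Here, GI50 denotes the concentration required for 50% inhibition of growth. Definition used: TGI = concentration required for complete inhibition of growth.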

Tests used:
Test in all cases: growth of human tumour cells (NCI), 48 h
A549 NSCLC = system: A549 NSCLC
SF-539 CNS = system: SF-539 CNS
SW-620 colon = system: SW-620 colon
U251 CNS = system: U251 CNS
OVCAR-3 ovarian = system: OVCAR-3 ovarian
MOLT-4 leukemia = system: MOLT-4 leukemia
MDA-MB-435 = system: MDA-MB-435
OVCAR-8 ovarian = system: OVCAR-8 ovarian
SF-295 CNS = system: SF-295 CNS
786-0 renal = system: 786-0 renal
MDA-MB-231 breast = system: MDA-MB-231 breast
PC-3 prostate = system: PC-3 prostate
KM12 colon = system: KM12 colon
SK-MEL-2 melanoma = system: SK-MEL-2 melanoma
HS 578T breast = system: HS 578T breast
UACC-257 melanoma = system: UACC-257 melanoma
NCI/ADR-RES ovarian = system: NCI/ADR-RES ovarian
SF-268 CNS = system: SF-268 CNS
TK-10 renal = system: TK-10 renal
OVCAR-4 ovarian = system: OVCAR-4 ovarian
DU-145 prostate = system: DU-145 prostate
HT29 colon = system: HT29 colon
UO-31 renal = system: UO-31 renal
SN12C renal = system: SN12C renal
HOP-92 NSCLC = system: HOP-92 NSCLC
ACHN renal = system: ACHN renal
HCT-116 colon = system: HCT-116 colon
SK-MEL-5 melanoma = system: SK-MEL-5 melanoma
M14 melanoma = system: M14 melanoma
K-562 leukemia = system: K-562 leukemia
EKVX NSCLC = system: EKVX NSCLC
NCI-H460 lung = system: NCI-H460 lung
SR leukemia = system: SR leukemia
NCI-H226 lung = system: NCI-H226 lung
NCI-H23 lung = system: NCI-H23 lung
BT-549 breast = system: BT-549 breast
IGROV1 ovarian = system: IGROV1 ovarian
SNB-19 CNS = system: SNB-19 CNS
HL-60(TB) leukemia = system: HL-60(TB) leukemia
A498 renal = system: A498 renal
SNB-75 CNS = system: SNB-75 CNS
UACC-62 melanoma = system: UACC-62 melanoma
HCT-15 colon = system: HCT-15 colon
COLO 205 colon = system: COLO 205 colon
SK-MEL-28 melanoma = system: SK-MEL-28 melanoma
RXF 393 renal = system: RXF 393 renal
OVCAR-5 ovarian = system: OVCAR-5 ovarian
NCI-H522 lung = system: NCI-H522 lung
MCF7 breast = system: MCF7 breast
RPMI-8226 leukemia = system: RPMI-8226 leukemia
LOX IMVI melanoma = system: LOX IMVI melanoma
CAKI-1 renal = system: CAKI-1 renal
HCC-2998 colon = system: HCC-2998 colon
HOP-62 NSCLC = system: HOP-62 NSCLC
SK-OV-3 ovarian = system: SK-OV-3 ovarian
T-47D breast = system: T-47D breast
CCRF-CEM leukemia = system: CCRF-CEM leukemia
MALME-3M melanoma = system: MALME-3M melanoma

COc1ncnc(NS(=O)(=O)c2ccc(N=C3C(=O)N(CN4CCN(c5c(F)cc6c(=O)c(C(=O)O)cn(C7CC7)c6c5OC)CC4C)c4ccc(Br)cc43)cc2)c1OC (centres undefined)
GI50 (A549 NSCLC): 4.78 µM | TGI (A549 NSCLC): > 50 µM | GI50 (SF-539 CNS): 7.53 µM | TGI (SF-539 CNS): 22.1 µM | GI50 (SW-620 colon): 9.41 µM | TGI (SW-620 colon): > 50 µM | GI50 (U251 CNS): 19.7 µM | TGI (U251 CNS): > 50 µM | GI50 (OVCAR-3 ovarian): 7.52 µM | TGI (OVCAR-3 ovarian): 40.7 µM | GI50 (MOLT-4 leukemia): 18.3 µM | TGI (MOLT-4 leukemia): > 50 µM | GI50 (MDA-MB-435): 7.07 µM | TGI (MDA-MB-435): 33.2 µM | GI50 (OVCAR-8 ovarian): 15.3 µM | TGI (OVCAR-8 ovarian): > 50 µM | GI50 (SF-295 CNS): 20.8 µM | TGI (SF-295 CNS): > 50000 nM | GI50 (786-0 renal): 38.8 µM | TGI (786-0 renal): > 50 µM | GI50 (MDA-MB-231 breast): 9.42 µM | TGI (MDA-MB-231 breast): 25.4 µM | GI50 (PC-3 prostate): 6.76 µM | TGI (PC-3 prostate): 29.4 µM | GI50 (KM12 colon): 4.02 µM | TGI (KM12 colon): 15.9 µM | GI50 (SK-MEL-2 melanoma): 20.5 µM | TGI (SK-MEL-2 melanoma): > 50 µM | GI50 (HS 578T breast): 12.1 µM | TGI (HS 578T breast): > 50 µM | GI50 (UACC-257 melanoma): 16.9 µM | TGI (UACC-257 melanoma): > 50 µM | GI50 (NCI/ADR-RES ovarian): 7.06 µM | TGI (NCI/ADR-RES ovarian): > 50 µM | GI50 (SF-268 CNS): 5.58 µM | TGI (SF-268 CNS): > 50 µM | GI50 (TK-10 renal): 2470 nM | TGI (TK-10 renal): > 50 µM | GI50 (OVCAR-4 ovarian): > 50 µM | TGI (OVCAR-4 ovarian): > 50 µM | GI50 (DU-145 prostate): 10.9 µM | TGI (DU-145 prostate): 37.3 µM | GI50 (HT29 colon): 15.6 µM | TGI (HT29 colon): > 50 µM | GI50 (UO-31 renal): > 50 µM | TGI (UO-31 renal): > 50 µM | GI50 (SN12C renal): 10.1 µM | TGI (SN12C renal): 23.4 µM | GI50 (HOP-92 NSCLC): 176 nM | TGI (HOP-92 NSCLC): 0.477 µM | GI50 (ACHN renal): 22.5 µM | TGI (ACHN renal): > 50 µM | GI50 (HCT-116 colon): 9.96 µM | TGI (HCT-116 colon): > 50 µM | GI50 (SK-MEL-5 melanoma): 5.52 µM | TGI (SK-MEL-5 melanoma): 14.5 µM | GI50 (M14 melanoma): 15.3 µM | TGI (M14 melanoma): > 50 µM | GI50 (K-562 leukemia): 1690 nM | TGI (K-562 leukemia): > 50 µM | GI50 (EKVX NSCLC): 6.4 µM | TGI (EKVX NSCLC): 44.8 µM | GI50 (NCI-H460 lung): 3.99 µM | TGI (NCI-H460 lung): 19.5 µM | GI50 (SR leukemia): 42.7 µM | TGI (SR leukemia): > 50 µM | GI50 (NCI-H226 lung): 15.3 µM | TGI (NCI-H226 lung): > 50 µM | GI50 (NCI-H23 lung): 8.79 µM | TGI (NCI-H23 lung): 27 µM | GI50 (BT-549 breast): 6.57 µM | TGI (BT-549 breast): 19.9 µM | GI50 (IGROV1 ovarian): 17.3 µM | TGI (IGROV1 ovarian): > 50 µM | GI50 (SNB-19 CNS): 19.4 µM | TGI (SNB-19 CNS): > 50 µM | GI50 (HL-60(TB) leukemia): 8.4 µM | TGI (HL-60(TB) leukemia): > 50 µM | GI50 (A498 renal): 11.3 µM | TGI (A498 renal): > 50 µM | GI50 (SNB-75 CNS): > 50 µM | TGI (SNB-75 CNS): > 50 µM | GI50 (UACC-62 melanoma): 2610 nM | TGI (UACC-62 melanoma): 11.3 µM | GI50 (HCT-15 colon): 4.73 µM | TGI (HCT-15 colon): > 50 µM | GI50 (COLO 205 colon): 10.8 µM | TGI (COLO 205 colon): 39.9 µM | GI50 (SK-MEL-28 melanoma): > 50 µM | TGI (SK-MEL-28 melanoma): > 50 µM | GI50 (RXF 393 renal): 12.9 µM | TGI (RXF 393 renal): 33 µM | GI50 (OVCAR-5 ovarian): 5 µM | TGI (OVCAR-5 ovarian): > 50 µM | GI50 (NCI-H522 lung): 31 µM | TGI (NCI-H522 lung): > 50 µM | GI50 (MCF7 breast): 7.1 µM | TGI (MCF7 breast): 41.9 µM | GI50 (RPMI-8226 leukemia): 5.54 µM | TGI (RPMI-8226 leukemia): 22.3 µM | GI50 (LOX IMVI melanoma): 1220 nM | TGI (LOX IMVI melanoma): 31.4 µM | GI50 (CAKI-1 renal): 6.21 µM | TGI (CAKI-1 renal): > 50 µM

O=CNCNCCO
TGI (A549 NSCLC): > 100 µM | TGI (HCC-2998 colon): > 100 µM | TGI (SW-620 colon): > 100 µM | TGI (U251 CNS): > 100 µM | TGI (OVCAR-3 ovarian): > 100 µM | TGI (MOLT-4 leukemia): > 100 µM | TGI (OVCAR-8 ovarian): > 100 µM | TGI (786-0 renal): > 100 µM | TGI (HOP-62 NSCLC): > 100 µM | TGI (SK-MEL-2 melanoma): > 100 µM | TGI (HS 578T breast): > 100 µM | TGI (NCI/ADR-RES ovarian): > 100 µM | TGI (SF-268 CNS): > 100 µM | TGI (TK-10 renal): > 100 µM | TGI (OVCAR-4 ovarian): > 100 µM | TGI (DU-145 prostate): > 100 µM | TGI (HT29 colon): > 100 µM | TGI (UO-31 renal): > 100 µM | TGI (HOP-92 NSCLC): > 100 µM | TGI (SK-OV-3 ovarian): > 100 µM | TGI (ACHN renal): > 100 µM | TGI (HCT-116 colon): > 100 µM | TGI (T-47D breast): > 100 µM | TGI (SK-MEL-5 melanoma): > 100 µM | TGI (M14 melanoma): > 100 µM | TGI (K-562 leukemia): > 100 µM | TGI (EKVX NSCLC): > 100 µM | TGI (NCI-H460 lung): > 100 µM | TGI (SR leukemia): > 100 µM | TGI (NCI-H226 lung): > 100 µM | TGI (NCI-H23 lung): > 100 µM | TGI (BT-549 breast): > 100 µM | TGI (IGROV1 ovarian): > 100 µM | TGI (SNB-19 CNS): > 100 µM | TGI (HL-60(TB) leukemia): 72.8 µM | TGI (A498 renal): > 100 µM | TGI (CCRF-CEM leukemia): > 100 µM | TGI (SNB-75 CNS): > 100 µM | TGI (UACC-62 melanoma): > 100 µM | TGI (MALME-3M melanoma): > 100 µM | TGI (HCT-15 colon): > 100 µM | TGI (SK-MEL-28 melanoma): > 100 µM | TGI (RXF 393 renal): > 100 µM | TGI (OVCAR-5 ovarian): > 100 µM | TGI (MCF7 breast): > 100 µM | TGI (RPMI-8226 leukemia): > 100 µM | TGI (CAKI-1 renal): > 100 µM

CC(NC(=O)C(N)CCC(=O)O)C(=O)NCP(=O)(O)O (centres undefined)
GI50 (M14 melanoma): 15.9 µg/mL

ClCCN(CCCl)c1ccc(/C=N/Nc2ccnc3ccccc23)cc1
TGI (A549 NSCLC): 3.38 µM | TGI (SW-620 colon): 4.48 µM | TGI (U251 CNS): 3.03 µM | TGI (MDA-MB-435): 3.14 µM | TGI (SF-295 CNS): 2990 nM | TGI (MDA-MB-231 breast): 3.45 µM | TGI (PC-3 prostate): 2.99 µM | TGI (HOP-62 NSCLC): 4.75 µM | TGI (HS 578T breast): 5.1 µM | TGI (TK-10 renal): 3.15 µM | TGI (DU-145 prostate): 3.5 µM | TGI (SN12C renal): 3.18 µM | TGI (HOP-92 NSCLC): 3.38 µM | TGI (ACHN renal): 3.37 µM | TGI (SK-MEL-5 melanoma): 3.47 µM | TGI (K-562 leukemia): 3.15 µM | TGI (NCI-H460 lung): > 100 µM | TGI (NCI-H226 lung): 3.48 µM | TGI (NCI-H23 lung): 3.89 µM | TGI (A498 renal): 46.7 µM | TGI (UACC-62 melanoma): 3.23 µM | TGI (MALME-3M melanoma): 3.19 µM | TGI (HCT-15 colon): 2.86 µM | TGI (MCF7 breast): > 100 µM | TGI (RPMI-8226 leukemia): 3.97 µM | TGI (LOX IMVI melanoma): 3.09 µM | TGI (CAKI-1 renal): 3.8 µM
